Results: publication PMC7039890, “Aedes aegypti Odorant Binding Protein 22 selectively binds fatty acids through a conformational change in its C-terminal tail” (Scientific Reports, 2020)
Where “and” joins values, the source holds several entries; their conditions need not be identical. Equal entries are not always repeated. Where two headings read alike, the source gives them in different places.

Experiments:
AeOBP22 [1] = biological target: T1, AeOBP22 (Aedes aegypti, UniProt Q1HRL7); assay: 1-NPN fluorescent reporter binding; conditions: result in words
T1 construct: The mature form of AeOBP22 lacking the N-terminal signal peptide was expressed and purified as previously described; made in house
T1 sequence (Q1HRL7 17-138): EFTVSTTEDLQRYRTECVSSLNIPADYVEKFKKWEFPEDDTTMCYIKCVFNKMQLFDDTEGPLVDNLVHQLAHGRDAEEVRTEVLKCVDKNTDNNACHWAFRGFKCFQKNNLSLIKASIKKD

AeOBP22 [2] = biological target: T1, AeOBP22; assay: NMR 1H-15N HSQC ligand screening / chemical shift perturbation; format: binding; conditions: protein 100 μM, sodium phosphate pH 6.5; for binding to AeOBP22 judged by NMR: result in words
Experimental: NMR experiments were performed at 25 °C on a either a Varian 900 MHz DD2, Varian INOVA 600 MHz or Bruker Avance Neo 600 MHz spectrometer. Samples for NMR were dissolved in sodium phosphate (20 mM, pH 6.5) and 90% H2O/10% D2O, with DSS (4,4-dimethyl-4-silapentane-1-sulfonic acid) (80 μM) added as an internal reference,[90]. For ligand screening, protein concentration was 100 μM and ligands were added to a concentration of 200–500 μM. For chemical shift assignments, relaxation rate measurements and structure calculations, protein concentrations were in the 400–700 μM range. All NMR experiments were collected using non uniform sampling methods[91] using the Poisson-gap sampling schemes implemented by Hyberts et al.[92] with a sampling density of 25–50%. Data were processed using the istHMS package v2111[93],[94] in combination with NmrPipe[95] and analyzed using Ccpnmr Analysis v 2.4.2[96].
Chemical shift assignments for the complex with arachidonic acid and the backbone assignments for the apo-protein were previously reported. Backbone ^1H, ^15N, ^13Cα and ^13Cβ assignments for nonadecanoic, linoleic acid (pH 4.5 and pH 6.5), and decanoic acids were made in the same way. All other backbone amide assignments were made by following chemical shift trajectories as a function of ligand concentration or chain length. Normalized chemical shift differences are reported as[97],[98]1 Δδ=(ΔδH^2+0.14∗ΔδN^2)

AeOBP22 [3] = biological target: T1, AeOBP22; assay: DAF based competition binding assay (recovery of DAF fluorescence by fatty acids); conditions: for Kd: pH 8.0 (HEPES 50 mM pH 8.1), 25 °C, ± s.d., n = 3
Experimental: Binding affinities were determined by monitoring the recovery of DAF florescence as a function of fatty acid concentration. Stock solutions of fatty acid were made by dissolving the fatty acid in 100% DMSO, and then making a 1:1000 dilution into HEPES (50 mM pH 8.1). Samples were vortexed prior to each titration point. The protein/DAF solution contained fixed concentrations of DAF (100 nM) and AeOBP22 (1000 nM).
As there is a single binding site for the fatty acid and the effect of fluorescence quenching can be completely reversed by increasing concentrations of fatty acids, we concluded that the fatty acid is directly competitive with binding of the DAF reporter. Therefore, the term for KD in Eq. 2 can be replaced with Eq. 3.3 Kapp=KD(1+I/KI) where I is the concentration of the competitor and KI is the dissociation constant of the competitor. The emission maxima were fit using Eq. 2 substituted into Eq. 1, with the concentration of the protein and DAF fixed at their known concentrations.

AeOBP22 [4] = biological target: T1, AeOBP22; assay: DAF fluorescence quenching titration with AeOBP22 (direct binding); conditions: for Kd: direct titration, fluorescence quenching at 513 nm, n = 7
Experimental: All fluorescence experiments were recorded at 25 °C on a Horiba Fluorolog 3–1–1 spectrofluorometer. DAF spectra were acquired using an excitation wavelength of 490 nm and the emission recorded between 500 and 560 nm at 1 nm intervals with an integration time of 1 s and slit widths of 2 nm. Stock solutions of DAF (Thermo Fisher, Batch D-109) were prepared in methanol with potassium hydroxide (0.2 M) and the concentration measured by UV spectroscopy using an extinction coefficient of 88000 M^−1 cm^−1 at 497 nm provided in the certificate of analysis. A 1:100 dilution was made into HEPES (50 mM, pH 8.1) and the sample vortexed and checked by UV to verify the DAF concentration. A solution of DAF (~80–100 nM) was titrated with increasing AeOBP22 to a final concentration of ~4 μM. The fluorescence intensity (cps) at the emission maxima (513 nm) was plotted against the total concentration of AeOBP22 and the KD for DAF was determined by fitting the raw fluorescence intensity for each replicate to Eq. (1):2 Fi=F0(1−([PT+LT+KD]−[PT+LT+KD]^2−4PTLT)/2LT)−Fmin where Fi is the measured fluorescence, F0 is the initial fluorescence in the absence of any protein, PT is the total protein, LT is the total concentration of DAF, and Fmin is the residual fluorescence after maximal quenching by the protein.

AeOBP22 [5] = biological target: T1, AeOBP22; assay: DAF based competition binding assay (recovery of DAF fluorescence by fatty acids)
[6] = DAF competition, DAF 100 nM, protein 1000 nM, read-out: KD (nM) for binding of fatty acids to AeOBP22
[7] = KD (nM) for binding of fatty acids to AeOBP22, DAF competition, DAF 100 nM, protein 1000 nM
[8] = DAF competition, DAF 100 nM, protein 1000 nM, pH 8.0, n = 3, read-out: KI (dissociation constant of the competitor)

Molecule: c1ccc(Nc2cccc3ccccc23)cc1 [1-NPN]
- binding of 1-NPN reporter to AeOBP22 (AeOBP22 [1]): bound with low affinity

Molecule: CCCCCCCC/C=C\CCCCCCCC(=O)OC[C@@H](O)COP(=O)(O)O [C16-LPA, lyso-phosphatidic acid]
- binding to AeOBP22 judged by NMR (AeOBP22 [2]): failed to identify

Molecule: O=C(O)CCCCCCCCCCCCCCCO [C16-OH, 16-hydroxy-hexadecanoic acid]
- competition for binding of the fluorescent reporter (DAF) (AeOBP22 [3]; result in words): does not compete

Molecule: CCCCCCCCCCCCCCCC(=O)O [C16:0, palmitic acid]
- Kd (AeOBP22 [3]; [6]): 689 ± 89 nM

Molecule: CCCCCC/C=C\CCCCCCCC(=O)O [C16:1, palmitoleic acid]
- Kd (AeOBP22 [3]; [6]): 175 ± 41 nM

Molecule: CCCCCCCC/C=C\CCCCCCCC(=O)O [C18:1, Oleic acid]
- Kd (AeOBP22 [3]; [6]): 85 nM and 84 nM

Molecule: CCCCC/C=C\C/C=C\CCCCCCCC(=O)O [C18:2, linoleic acid]
- Ki (AeOBP22 [3]): 104 ± 30 nM
- Kd (AeOBP22 [3]; [7]): 104 ± 30 nM

Molecule: CCCCC/C=C\C/C=C\C/C=C\C/C=C\CCCC(=O)O [C20:4, arachidonic acid]
- Ki (AeOBP22 [3]): 286 ± 29 nM
- Kd (AeOBP22 [3]; [7]): 286 ± 29 nM
- binding to AeOBP22 judged by NMR (AeOBP22 [2]): binding occurs with high affinity

Molecule: CCCCCCCCCCCC(=O)Nc1ccc2c(c1)C(=O)OC21c2ccc(O)cc2Oc2cc(O)ccc21 [DAF, 5-(N-dodecanoyl)-amino-fluorescein]
- Kd (AeOBP22 [4]; HEPES pH 8.1, 25 °C, ± s.d., read-out: KD (nM) for binding of DAF to AeOBP22): 1190 ± 261 nM
- Kd (AeOBP22 [4]; read-out: KD of DAF for AeOBP22): 1190 nM
- quenching of DAF fluorescence upon addition of AeOBP22 (reduction from maximal intensity) (AeOBP22 [4]; emission maximum 513 nm): ~ 75%

Molecule: O=Cc1ccccc1 [benzaldehyde]
- ligand concentration at which large NMR chemical shift changes occur (AeOBP22 [2]): > 1 mM
- binding to AeOBP22 judged by NMR (AeOBP22 [2]): binding is weak

Molecule: CC(C)=CCCC(C)CCO (centres unmarked) [citronellol]
- ligand concentration at which large NMR chemical shift changes occur (AeOBP22 [2]): > 1 mM
- binding to AeOBP22 judged by NMR (AeOBP22 [2]): binding is weak

Molecule: CC(C)=CCC/C(C)=C/CO [geraniol]
- ligand concentration at which large NMR chemical shift changes occur (AeOBP22 [2]): > 1 mM
- binding to AeOBP22 judged by NMR (AeOBP22 [2]): binding is weak

Molecule: CC/C=C\C/C=C\C/C=C\CCCCCCCC(=O)O [αC18:3, a-Linoleic acid C18:3 (D9,12,15)]
- Kd (AeOBP22 [3]; [6]): 52 ± 8 nM
- Ki (AeOBP22 [3]; [8]): 52 ± 8 nM
- Ki (AeOBP22 [5]; pH 5, n = 2, read-out: KI (dissociation constant of the competitor) at pH 5): 42 ± 14 nM
- Kd (AeOBP22 [5]; pH 5.0, ± s.d., n = 2, read-out: KD (nM) for binding of fatty acid to AeOBP22 at pH 5.0): 42 ± 14 nM
- Kd (AeOBP22 [5]; pH 6.5 as printed, read-out: binding affinity at pH 6.5 (as printed in text)): 52 ± 8 nM

Molecule: CCCCC/C=C\C/C=C\C/C=C\CCCCC(=O)O [γC18:3, g-Linoleic acid C18:3 (D6 ,9,12)]
- Kd (AeOBP22 [3]; [6]): 111 ± 27 nM
- Ki (AeOBP22 [3]; [8]): 111 ± 27 nM

Molecule: Eicosenoic acid [C20:1]
- Kd (AeOBP22 [3]; [6]): 102 ± 16 nM
- Ki (AeOBP22 [3]; [8]): 102 ± 16 nM
